Measured values published in patent US6979686B1, “Substituted pyrazoles as p38 kinase inhibitors” (Pharmacia Corporation, priority 2001, dated 2005).
Read-outs that look alike come from different tables or passages of the source. Values belong to the molecule of their own block, whether it stands above or below them.

Legend:
[1] = test system: TNF-α, U937 human histiocytic lymphoma cell line; experiment: LPS stimulation of TNF production by U937 cells; format: cell-based
Method in brief: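 U937 cells differentiated 24 h with 20 ng/ml PMA, rested 24-48 h, used at 2 million cells/ml. Compounds in 0.1% DMSO final; LPS (E. coli, 100 ng/ml final) stimulation for 4 h at 37° C. Released TNF-α measured by ELISA; IC50 (μM).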

human p38 kinase alpha = biological target: T1, human p38 kinase alpha (Homo sapiens, UniProt Q16539); experiment: p38 kinase in vitro assay, phosphorylation of biotinylated PHAS-I with 32P-ATP; format: biochemical; conditions: for P38 alpha kinase % inhib @ conc. (uM): @ 1.0 uM; for IC50: read-out: P38 alpha kinase IC50
T1 construct: GST (N, cleaved yes); made in house; host or cells: E. coli DH10B
T1 sequence (Q16539 whole entry): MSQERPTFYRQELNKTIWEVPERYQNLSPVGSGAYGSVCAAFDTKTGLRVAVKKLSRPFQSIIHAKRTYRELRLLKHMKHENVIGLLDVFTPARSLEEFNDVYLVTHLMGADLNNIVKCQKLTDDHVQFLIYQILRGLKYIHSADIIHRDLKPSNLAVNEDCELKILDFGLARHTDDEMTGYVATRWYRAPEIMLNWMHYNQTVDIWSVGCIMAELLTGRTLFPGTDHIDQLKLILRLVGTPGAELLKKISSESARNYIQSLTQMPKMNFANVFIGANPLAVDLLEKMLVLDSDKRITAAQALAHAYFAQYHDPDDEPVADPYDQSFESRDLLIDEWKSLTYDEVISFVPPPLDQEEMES

[2] = test system: TNF alpha, BALB/c mice injected with LPS; experiment: Mouse model of LPS-induced TNF alpha production; format: in vivo; conditions: for Mouse LPS Model % TNF inhib @ dose @ predose time / inhibition in vivo at 30 mg/kg: 30 mpk oral gavage; for mLPS 8 h percent inhibition: Table 6, mouse LPS, head '8 h'; for inhibition in vivo at 30 mg/kg: Mus musculus, read-out: Mouse LPS Model % TNF inhib @ dose @ predose time
Method: Mouse Model of LPS-induced TNF Alpha Production:
TNF alpha was induced in 10-12 week old BALB/c female mice by tail vein injection with 100 ng lipopolysaccharide (from S. Typhosa) in 0.2 ml saline. One hour later mice were bled from the retroorbital sinus and TNF concentrations in serum from clotted blood were quantified by ELISA.
Efficacy was determined at each time point as percent inhibition of serum TNF levels relative to LPS injected mice that received vehicle only.
In vivo assessment of the ability of the compounds to inhibit LPS-stimulated TNP release in the mouse is shown in the column identified as: • “Mouse LPS Model, % TNF inhib @ dose @ predose time” wherein in the dose is milligram per kilogram (mpk) administered by oral gavage and the predose time indicates the number of hours before LPS challenge when the compound is administered.

[3] = TNF production, human U937 cells stimulated with LPS, read-out: U937 Cell IC50
[4] = Table 6, U937 cell assay, read-out: U937 IC50
[5] = in vitro P38-alpha kinase inhibition
[6] = predose time not printed ("@ -")

IC50 [1, 3]: 680 nM | P38 alpha kinase % inhib @ conc. (uM) (human p38 kinase alpha): 74% @
Structure (SMILES): CC(=O)OCC(=O)NCCCc1[nH]nc(-c2ccc(F)cc2)c1-c1ccncc1 [Example B-1158]
Mouse LPS Model % TNF inhib @ dose @ predose time ([2]; −6 h before LPS challenge): 53% @ 30 mpk @ −6 h

IC50 [1, 4]: 140 nM
Structure (SMILES): OCCn1cc(-c2ccnc(NCc3ccc(F)cc3)c2)c(-c2ccc(F)cc2)n1 [Example A-289, 3-(4-fluorophenyl)-4-[2-[[(4-fluorophenyl)methyl]amino]-4-pyridinyl]-1H-pyrazole-1-ethanol]
mLPS 8 h percent inhibition ([2]; dose 30, oral gavage): 44%

IC50 [1, 4]: 800 nM
Structure (SMILES): OCCn1cc(-c2ccnc(NCc3ccc(F)cc3)c2)c(-c2ccc(F)cc2)n1 [Example A-283, 3 (or 5)-(4-fluorophenyl)-4-[2-[[(4-fluorophenyl)methyl]amino]-4-pyridinyl]-1H-pyrazole-1-ethanol]
mLPS 8 h percent inhibition ([2]; dose 30, oral gavage): −20%

Structure (SMILES): Brc1ccc(-c2n[nH]cc2-c2ccncc2)cc1 [Example A-241, 4-[3-(4-bromophenyl)-1H-pyrazol-4-yl]pyridine]
mLPS 8 h percent inhibition ([2]; dose 30, oral gavage): 79%

Structure (SMILES): Fc1ccc(-c2n[nH]cc2-c2ccnc3ccccc23)cc1 [Example A-291]
mLPS 8 h percent inhibition ([2]; dose 30, oral gavage): 36%

Structure (SMILES): CN(C)CCn1cc(-c2ccncc2)c(-c2ccc(F)cc2)n1 [Example A-261, 3-(4-fluorophenyl)-N,N-dimethyl-4-(4-pyridinyl)-1H-pyrazole-1-ethanamine]
mLPS 8 h percent inhibition ([2]; dose 30, oral gavage): 48%

IC50 (human p38 kinase alpha; [5]): 71 nM
Structure (SMILES): Cc1ccc(F)cc1S(=O)(=O)NC(C)c1[nH]nc(-c2ccc(F)cc2)c1-c1ccncc1 (centres unmarked) [Example B-0451]
inhibition in vivo at 30 mg/kg ([2]; −5 h before LPS challenge): 42%

Structure (SMILES): N#Cc1cc(-c2c[nH]nc2-c2ccc(F)cc2)ccn1 [Example A-215, 4-[3-(4-fluorophenyl)-1H-pyrazol-4-yl]-2-pyridinecarbonitrile]
mLPS 8 h percent inhibition ([2]; dose 30, oral gavage): 38%

IC50 ([1]; Homo sapiens, U-937, TNF production, human U937 cells stimulated with LPS, read-out: U937 Cell IC50): 410 nM | IC50 (human p38 kinase alpha; in vitro P38-alpha kinase): < 100 nM
Structure (SMILES): O=C(c1ccccc1F)N1CCC(c2[nH]nc(-c3ccc(F)cc3)c2-c2ccncc2)CC1 [Example B-1372]
inhibition in vivo at 30 mg/kg [2, 6]: 48%

IC50 ([1]; Homo sapiens, U-937, TNF production in human U937 cells stimulated with LPS, read-out: U937 Cell IC50): 1010 nM | IC50 (human p38 kinase alpha; [5]): 450 nM
Structure (SMILES): CC(C)C(=O)NC(C)c1[nH]nc(-c2ccc(F)cc2)c1-c1ccncc1 (centres unmarked) [Example B-0532]
inhibition in vivo at 30 mg/kg ([2]; −6 h before LPS challenge): 41%

IC50 (human p38 kinase alpha; in vitro P38-alpha kinase): 9 nM
Structure (SMILES): CS(=O)(=O)N1CCC(c2[nH]nc(-c3ccc(F)cc3)c2-c2ccncc2)CC1 [Example B-1376]
Mouse LPS Model % TNF inhib @ dose @ predose time ([2]; −6 h before LPS challenge): 3.0% @ 30 mpk @ −6 H

Structure (SMILES): OCCn1ncc(-c2ccnc(NCc3ccc(F)cc3)c2)c1-c1ccc(F)cc1 [Example A-290, 5-(4-fluorophenyl)-4-[2-[[(4-fluorophenyl)methyl]amino]-4-pyridinyl]-1H-pyrazole-1-ethanol]
mLPS 8 h percent inhibition ([2]; dose 30, oral gavage): 4%

Structure (SMILES): CN(C)CCCNc1[nH]nc(-c2ccc(F)cc2)c1-c1ccncc1 [Example A-287, N′-[5-(4-fluorophenyl)-4-(4-pyridinyl)-1H-pyrazol-3-yl]-N,N-dimethyl-1,3-propanediamine]
mLPS 8 h percent inhibition ([2]; dose 30, oral gavage): −24%

Structure (SMILES): Cn1cc(-c2ccncc2)c(-c2cccc(F)c2)n1 [Example A-229, 4-[3-(3-fluorophenyl)-1-methyl-1H-pyrazol-4-yl]pyridine]
mLPS 8 h percent inhibition ([2]; dose not given, oral gavage): 76%

P38 alpha kinase % inhib @ conc. (uM) (human p38 kinase alpha): 66.0% @
Structure (SMILES): O=C(NCCCc1[nH]nc(-c2ccc(F)cc2)c1-c1ccncc1)c1ccccc1I [Example B-1159]
Mouse LPS Model % TNF inhib @ dose @ predose time ([2]; −6 h before LPS challenge): 60% @ 30 mpk @ −6 h

IC50 [1, 4]: 450 nM
Structure (SMILES): Fc1ccc(CNc2cc(-c3cn(CCN4CCOCC4)nc3-c3ccc(F)cc3)ccn2)cc1 [Example A-276, N-[(4-fluorophenyl)methyl]-4-[3(or 5)-(4-fluorophenyl)-1-[[2-(4-morpholinyl)ethyl]-1H-pyrazol-4-yl]-2-pyridinamine]
mLPS 8 h percent inhibition ([2]; dose 30, oral gavage): −24%

Structure (SMILES): Cn1cc(-c2ccncc2)c(-c2ccc3c(c2)OCO3)n1 [Example A-231, 4-[3-(1,3-benzodioxol-5-y)-1-methyl-1H-pyrazol-4-yl]pyridine]
mLPS 8 h percent inhibition ([2]; dose 30, oral gavage): 86%

IC50 [1, 4]: 180 nM
Structure (SMILES): Fc1ccc(CNc2cc(-c3cn(CCN4CCOCC4)nc3-c3ccc(F)cc3)ccn2)cc1 [Example A-285, N-[(4-fluorophenyl)methyl]-4-[3-(4-fluorophenyl)-1-[2-(4-morpholinyl)ethyl]-1H-pyrazol-4-yl]-2-pyridinamine]
mLPS 8 h percent inhibition ([2]; dose 30, oral gavage): 11%

Structure (SMILES): Cn1cc(-c2ccnc(NCCO)c2)c(-c2ccc(F)cc2)n1 [Example A-281, 2-[[4-[3-(4-fluorophenyl)-1-methyl-1H-pyrazol-4-yl]-2-pyridinyl]amino]ethanol]
mLPS 8 h percent inhibition ([2]; dose 30, oral gavage): 22%

Structure (SMILES): CCN(CC)CCn1cc(-c2ccnc(F)c2)c(-c2ccc(F)cc2)n1 [Example A-278, N,N-diethyl-3-(4-fluorophenyl)-4-(2-fluoro-4-pyridinyl)-1H-pyrazole-1-ethanamine]
mLPS 8 h percent inhibition ([2]; dose 30, oral gavage): 62%

Structure (SMILES): Fc1cc(-c2c[nH]nc2-c2ccc(Cl)cc2)ccn1 [Example A-240]
mLPS 8 h percent inhibition ([2]; dose 30, oral gavage): 78%

IC50 (human p38 kinase alpha; [5]): 830 nM
Structure (SMILES): CNC(=O)NC(C)c1[nH]nc(-c2ccc(F)cc2)c1-c1ccncc1 (centres unmarked) [Example B-0585]
inhibition in vivo at 30 mg/kg ([2]; −6 h before LPS challenge): 50%

Structure (SMILES): Clc1ccc(-c2n[nH]cc2-c2ccncc2)cc1Cl [Example A-297, 4-[3-(3,4-dichlorophenyl)-1H-pyrazol-4-yl]pyridine]
mLPS 8 h percent inhibition ([2]; dose 30, oral gavage): 89%

Structure (SMILES): CCN(CC)CCn1cc(-c2ccnc(NCc3ccc(F)cc3)c2)c(-c2ccc(F)cc2)n1 [Example A-279, 4-[1-[2-(diethylamino)ethyl]-3-(4-fluorophenyl)-1H-pyrazol-4-yl]-N-[(4-fluorophenyl)methyl]-2-pyridinamine]
mLPS 8 h percent inhibition ([2]; dose 30, oral gavage): 64%

Structure (SMILES): Cn1cc(-c2ccnc(F)c2)c(-c2ccc(F)c(F)c2)n1 [Example A-260, 4-[3-(3,4-difluorophenyl)-1-methyl-1H-pyrazol-4-yl]-2-fluoropyridine]
mLPS 8 h percent inhibition ([2]; dose 30, oral gavage): 47%

Structure (SMILES): C#CCn1cc(-c2ccncc2)c(-c2ccc(F)cc2)n1 [Example A-294, 4-[3-(4-fluorophenyl)-1-(2-propynyl)-1H-pyrazol-4-yl]pyridine]
mLPS 8 h percent inhibition ([2]; dose 30, oral gavage): 61%

Structure (SMILES): OCCNc1cc(-c2c[nH]nc2-c2ccc(F)cc2)ccn1 [Example A-280]
mLPS 8 h percent inhibition ([2]; dose 30, oral gavage): 15%

Structure (SMILES): C#CCNc1[nH]nc(-c2ccc(F)cc2)c1-c1ccncc1 [Example A-288, 5-(4-fluorophenyl)-N-2-propynyl-4-(4-pyridinyl)-1H-pyrazol-3-amine]
mLPS 8 h percent inhibition ([2]; dose 30, oral gavage): 40%

Structure (SMILES): Cn1cc(-c2ccncc2)c(-c2ccc(C(F)(F)F)cc2)n1 [Example A-252, 4-[1-methyl-3-[4-(trifluoromethyl)phenyl]-1H-pyrazol-4-yl]pyridine]
mLPS 8 h percent inhibition ([2]; dose 30, oral gavage): 48%

Structure (SMILES): Fc1ccc(-c2n[nH]cc2-c2ccnc(F)c2)cc1 [Example A-249, 2-fluoro-4-[3-(4-fluorophenyl)-1H-pyrazol-4-yl]pyridine]
mLPS 8 h percent inhibition ([2]; dose 30, oral gavage): 73%

Structure (SMILES): c1cc(-c2c[nH]nc2-c2ccc3c(c2)OCO3)ccn1 [Example A-228, 4-[3-(1,3-benzodioxol-5-yl)-1H-pyrazol-4-yl]pyridine]
mLPS 8 h percent inhibition ([2]; dose 30, oral gavage): 32%

Structure (SMILES): CCN(CC)CCn1cc(-c2ccncc2)c(-c2ccc(F)cc2)n1 [Example A-284, N,N-diethyl-3-(4-fluorophenyl)-4-(4-pyridinyl)-1H-pyrazole-1-ethanamine]
mLPS 8 h percent inhibition ([2]; dose not given, oral gavage): −1%

IC50 (human p38 kinase alpha; in vitro P38-alpha kinase): 31 nM
Structure (SMILES): COCC(=O)N1CCC(c2[nH]nc(-c3ccc(F)cc3)c2-c2ccncc2)CC1 [Example B-1368]
inhibition in vivo at 30 mg/kg [2, 6]: 44%

Structure (SMILES): Cn1cc(-c2ccncc2)c(-c2ccc(I)cc2)n1 [Example A-251, 4-[3-(4-iodophenyl)-1-methyl-1H-pyrazol-4-yl]pyridine]
mLPS 8 h percent inhibition ([2]; dose not given, oral gavage): 32%

Structure (SMILES): Fc1ccc(-c2n[nH]c(NCCN3CCOCC3)c2-c2ccncc2)cc1 [Example A-218, N-[5-(4-fluorophenyl)-4-(4-pyridinyl)-1H-pyrazol-3-yl]-4-morpholineethanamine]
mLPS 8 h percent inhibition ([2]; dose 30, oral gavage): 18%

IC50 [1, 3]: 590 nM | P38 alpha kinase % inhib @ conc. (uM) (human p38 kinase alpha): 79.0% @
Structure (SMILES): C=CCOC(=O)NCCCc1[nH]nc(-c2ccc(F)cc2)c1-c1ccncc1 [Example B-1162]
Mouse LPS Model % TNF inhib @ dose @ predose time ([2]; −6 h before LPS challenge): 40% @ 30 mpk @ −6 h
